Experimental data as given in publication PMC11191095, “QSAR Reveals Decreased Lipophilicity of Polar Residues Determines the Selectivity of Antimicrobial Peptide Activity” (ACS Omega, 2024).
Converted amounts (≈) assume the structure as drawn. Where a SMILES comes first, the peptide text is derived from it.

What was measured:
Assay in all cases: microbe, parasite or virus in culture
[1] = system: A. baumannii AYE; format: cell-based, Acinetobacter baumannii; settings: for MIC: Acinetobacter baumannii, read-out: Modal MIC; for Modal MIC: A. baumannii AYE (R)
Method: (§1) Antimicrobial activity was evaluated against a panel of 18 pathogens consisting of eight Gram-negative strains (E. coli NCTC 12923, E. coli LEC001, Pseudomonas aeruginosa PAO1, P. aeruginosa NCTC 13437, Acinetobacter baumannii ATCC 17978, A. baumannii AYE, Klebsiella pneumoniae M6, K. pneumoniae NCTC 13368), four Gram-positive strains (Staphylococcus aureus ATCC 9144, S. aureus NCTC 13616, S. aureus USA300, S. aureus 1199B) and six fungi (Candida auris TDG 1912, C. albicans NCPF 8018, C. krusei NCPF 3876, C. tropicalis NCPF 8760, and C. parapsilosis NCPF 3209). Pathogens were grown in noncation adjusted Mueller Hinton broth (MHB, for bacteria) or Roswell Park Memorial Institute (RPMI 1640) + 2% glucose (for fungi) at 37 °C with 180 rpm shaking and maintained on solid media (tryptic soy agar for bacteria and Sabouraud dextrose agar for fungi). For an antibiogram, see Suppl.
(§2) The 46 peptides were serially diluted (128 to 2 μg/mL) in media down polypropylene 96-well plates. Bacteria or fungi, diluted from an overnight culture to an OD600 of 0.01, were added to the serially diluted peptides at a 1:1 ratio resulting in a starting cell density of ∼5 × 10^5 CFU/mL. Plates were incubated at 37 °C for 20 h, and the optical density was determined spectrophotometrically at 600 nm. Minimum inhibition concentrations (MICs) were determined from a minimum of three biological repeats and are reported in μg/mL as well as μM. […] The MIC50 or MIC90 is defined as the lowest peptide concentration that results in 50% or 90% growth inhibition over a 20 h treatment period, respectively.

[2] = system: A. baumannii ATCC 17978; format: cell-based, Acinetobacter baumannii; settings: for MIC: Acinetobacter baumannii, ATCC17978, 20 h, read-out: Modal MIC
Method: as §1, §2

[3] = system: K. pneumoniae NCTC 13368; format: cell-based, Klebsiella pneumoniae; settings: for MIC: Klebsiella pneumoniae, NCTC13368, 20 h, read-out: Modal MIC; for Modal MIC: K. pneumoniae NCTC 13368 (R)
Method: as §1, §2

[4] = system: K. pneumoniae M6; format: cell-based, Klebsiella pneumoniae; settings: for MIC: Klebsiella pneumoniae, M6, 20 h, read-out: Modal MIC
Method: as §1, §2

[5] = system: S. aureus (MSSA) ATCC 9144; format: cell-based, Staphylococcus aureus; settings: 20 h; for MIC: Staphylococcus aureus, read-out: Modal MIC
Method: as §1, §2

[6] = system: S. aureus (MRSA) 1199B; format: cell-based, Staphylococcus aureus; settings: for MIC: Staphylococcus aureus, MRSA, read-out: Modal MIC; for Modal MIC: S. aureus (MRSA) 1199B (R)
Method: as §1, §2

[7] = system: S. aureus (MRSA) NCTC 13616; format: cell-based, Staphylococcus aureus; settings: for MIC: Staphylococcus aureus, read-out: Modal MIC; for Modal MIC: S. aureus (MRSA) NCTC 13616 (R)
Method: as §1, §2

[8] = system: S. aureus (MRSA) USA300; format: cell-based, Staphylococcus aureus; settings: for MIC: Staphylococcus aureus, read-out: Modal MIC; for Modal MIC: S. aureus (MRSA) USA300 (R)
Method: as §1, §2

[9] = system: P. aeruginosa NCTC 13437; format: cell-based, Pseudomonas aeruginosa; settings: for MIC: Pseudomonas aeruginosa, NCTC13437, 20 h, read-out: Modal MIC; for Modal MIC: P. aeruginosa NCTC 13437 (R)
Method: as §1, §2

[10] = system: P. aeruginosa PAO1; format: cell-based, Pseudomonas aeruginosa; settings: for MIC: Pseudomonas aeruginosa, PAO1, 20 h, read-out: Modal MIC
Method: as §1, §2

[11] = system: E. coli LEC001; format: cell-based, Escherichia coli; settings: for MIC: Escherichia coli, LEC001, 20 h, read-out: Modal MIC
Method: as §1, §2

[12] = system: E. coli NCTC 12923; format: cell-based, Escherichia coli; settings: for MIC: Escherichia coli, NCTC12923, 20 h, read-out: Modal MIC
Method: as §1, §2

[13] = system: C. auris TDG 1912; format: cell-based, Candida auris; settings: TDG 1912, 20 h
Method: as §1, §2

[14] = system: C. parapsilosis NCPF 3209; format: cell-based; settings: NCPF 3209, 20 h
Method: as §1, §2

[15] = system: C. albicans NCPF 3281; format: cell-based; settings: NCPF 3281, 20 h
Method: as §1, §2

[16] = system: C. tropicalis NCPF 8760; format: cell-based; settings: NCPF 8760, 20 h
Method: as §1, §2

[17] = system: C. krusei NCPF 3876; format: cell-based; settings: NCPF 3876, 20 h
Method: as §1, §2

[18] = system: C. glabrata NCPF 8018; format: cell-based; settings: NCPF 8018, 20 h
Method: as §1, §2

[19] = MHB, 37 °C, 20 h, OD600, min. three biological repeats

Compound | MIC ([1]; 20 h) [µg/mL] | MIC [2] [µg/mL] | MIC [3] [µg/mL] | MIC [4] [µg/mL] | MIC [5] [µg/mL] | MIC ([6]; 20 h) [µg/mL] | MIC ([7]; 20 h) [µg/mL] | MIC ([8]; 20 h) [µg/mL] | MIC [9] [µg/mL] | MIC [10] [µg/mL] | MIC [11] [µg/mL] | MIC [12] [µg/mL] | Modal MIC [1, 19] [µg/mL] | Modal MIC [3, 19] [µg/mL] | Modal MIC [6, 19] [µg/mL] | Modal MIC [7, 19] [µg/mL] | Modal MIC [8, 19] [µg/mL] | Modal MIC [9, 19] [µg/mL] | also measured
O=C(O)c1cn(C2CC2)c2cc(N3CCNCC3)c(F)cc2c1=O [Ciprofloxacin, reference compound] | 128 (≈ 386 µM) | 0.5 (≈ 1.51 µM) | 0.5 (≈ 1.51 µM) | < 0.5 | 1 (≈ 3.02 µM) | 8 (≈ 24.1 µM) | 64 (≈ 193 µM) | 64 (≈ 193 µM) | 64 (≈ 193 µM) | 0.5 (≈ 1.51 µM) | 32 (≈ 96.6 µM) | ≤ 0.125 |  |  |  |  |  |  | 
CC[C@H](C)[C@H](NC(=O)[C@@H](N)CCCCN)C(=O)N[C@@H](C)C(=O)N[C@@H](CCCCN)C(=O)N[C@H](C(=O)N[C@@H](C)C(=O)N[C@@H](CC(C)C)C(=O)N[C@@H](CCCCN)C(=O)N[C@@H](C)C(=O)N[C@@H](CC(C)C)C(N)=O)C(C)C [DRAMP02273a] (H-KIAKVALKAL-NH2) |  |  |  |  |  |  |  |  |  |  |  |  | > 128 | > 128 | > 128 | > 128 | > 128 | > 128 | Modal MIC ([1]; shown in µM): > 117.5 µM; Modal MIC ([3]; shown in µM): > 117.5 µM; Modal MIC ([6]; shown in µM): > 117.5 µM; Modal MIC ([7]; shown in µM): > 117.5 µM; Modal MIC ([8]; shown in µM): > 117.5 µM; Modal MIC50 [13]: > 117.5 µM; Modal MIC90 [13]: > 117.5 µM; Modal MIC ([9]; shown in µM): > 117.5 µM; Modal MIC50 [14]: > 117.5 µM; Modal MIC90 [14]: > 117.5 µM; Modal MIC50 [15]: > 117.5 µM; Modal MIC90 [15]: > 117.5 µM; Modal MIC50 [16]: > 117.5 µM; Modal MIC90 [16]: > 117.5 µM; Modal MIC50 [17]: > 117.5 µM; Modal MIC90 [17]: > 117.5 µM; Modal MIC50 [18]: > 117.5 µM; Modal MIC90 [18]: > 117.5 µM
CC(C)(O/N=C(\C(=O)N[C@@H]1C(=O)N2C(C(=O)[O-])=C(C[n+]3ccccc3)CS[C@H]12)c1csc(N)n1)C(=O)O [Ceftazidime, reference compound] | > 128 | < 0.5 | 512 (≈ 937 µM) | < 0.5 | 16 (≈ 29.3 µM) | 8 (≈ 14.6 µM) | 128 (≈ 234 µM) | 32 (≈ 58.5 µM) | > 128 | 1 (≈ 1.83 µM) | 128 (≈ 234 µM) | ≤ 0.125 |  |  |  |  |  |  | 
NC[C@H]1O[C@H](O[C@H]2[C@H](O)[C@@H](O[C@H]3O[C@H](CO)[C@@H](O)[C@H](N)[C@H]3O)[C@H](N)C[C@@H]2N)[C@H](N)C[C@@H]1O [Tobramycin, reference compound] | 64 (≈ 137 µM) | 4 (≈ 8.56 µM) | 64 (≈ 137 µM) | 8 (≈ 17.1 µM) | 0.25 to 0.5 (≈ 0.535 to 1.07 µM) | 0.25 (≈ 0.535 µM) | 0.5 (≈ 1.07 µM) |  | 64 (≈ 137 µM) | 2 (≈ 4.28 µM) | 8 (≈ 17.1 µM) | 16 (≈ 34.2 µM) |  |  |  |  |  |  | 
Gentamycin [reference compound] |  |  |  |  |  |  |  |  |  |  |  |  | > 512 | 4 | 0.25 | 0.25 | 4 | 256 | Modal MIC ([2]; A. baumannii ATCC 17978 (S), MHB, 37 °C, 20 h, OD600, min. three biological repeats): 0.5 µg/mL; Modal MIC ([4]; K. pneumoniae M6 (S), MHB, 37 °C, 20 h, OD600, min. three biological repeats): 0.25 µg/mL; Modal MIC ([5]; S. aureus (MSSA) ATCC 9144 (S), MHB, 37 °C, OD600, min. three biological repeats): 0.25 µg/mL; Modal MIC ([10]; P. aeruginosa PAO1 (S), MHB, 37 °C, 20 h, OD600, min. three biological repeats): 4 µg/mL; Modal MIC ([11]; E. coli LEC001 (R), MHB, 37 °C, 20 h, OD600, min. three biological repeats): 4 µg/mL; Modal MIC ([12]; E. coli NCTC 12923 (S), MHB, ~5×10^5 CFU/mL, 37 °C, 20 h, OD600, min. three biological repeats): 1 µg/mL
